We go through 29 compounds from patent US8008291B2 (Mimetica Pty Ltd, priority 2008, dated 2011).

T1 sequence (P33032 whole entry): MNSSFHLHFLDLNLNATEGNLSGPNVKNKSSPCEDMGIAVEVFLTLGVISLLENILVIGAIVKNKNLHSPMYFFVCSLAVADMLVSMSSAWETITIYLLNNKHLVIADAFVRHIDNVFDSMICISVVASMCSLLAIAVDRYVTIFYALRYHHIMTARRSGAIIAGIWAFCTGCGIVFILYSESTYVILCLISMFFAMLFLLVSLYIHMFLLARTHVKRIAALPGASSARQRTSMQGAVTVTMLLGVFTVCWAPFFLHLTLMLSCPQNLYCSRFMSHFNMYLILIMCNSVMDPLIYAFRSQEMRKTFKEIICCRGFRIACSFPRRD

This assay concerns the target T1, human MC5R (hMC5R) (Homo sapiens, UniProt P33032).
T1 construct: purchased Perkin Elmer RBXMC5M400UA
The assay is described as follows: Human MC5R radioligand binding assay (membranes, [125I] NDP-MSH displacement). To be noted: hMC5R binding; tested as trifluoroacetate or hydrochloride salts, or free bases; read-out: MC5R radioligand IC50. In outline:
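Frozen human MC5R membranes incubated with test compound and in-house iodogen-labeled, HPLC-purified [125I]NDP-MSH for 1 hr at 37° C. Binding measured as displacement of the radioligand.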
For the compound `CC[C@H](CN1CC[C@@H](CNC(=O)/C=C/c2ccc(OC(F)(F)F)c(F)c2)N[C@@H](CCN2CCCCC2)C1=O)c1ccccc1` [Compound 539, (E)-3-(3-fluoro-4-(trifluoromethoxy)phenyl)-N-(((3S,5S)-2-oxo-1-((S)-2-phenylbutyl)-3-(2-(piperidin-1-yl)ethyl)-1,4-diazepan-5-yl)methyl)acrylamide], the IC50 is below 10 nM.

For the compound `CC[C@H](CN1CC[C@@H](CNC(=O)c2ccc(Cl)c(Cl)c2)N[C@@H](CCN2C(=O)CC(C)(C)C2=O)C1=O)c1ccccc1` [Compound 492, 3,4-dichloro-N-(((3S,5S)-3-(2-(3,3-dimethyl-2,5-dioxopyrrolidin-1-yl)ethyl)-2-oxo-1-((S)-2-phenylbutyl)-1,4-diazepan-5-yl)methyl)benzamide], the IC50 is below 10000 nM.

Regarding `CC[C@H](CN1CC[C@@H](CNC(=O)c2ccc(Cl)c(Cl)c2)N[C@@H](CCN2CCCC2)C1=O)c1ccccc1` [Compound 411, 3,4-dichloro-N-(((3S,5S)-2-oxo-1-((S)-2-phenylbutyl)-3-(2-(pyrrolidin-1-yl)ethyl)-1,4-diazepan-5-yl)methyl)benzamide], the IC50 is below 100 nM.

As to `C[C@@H](N1CC[C@@H](CNC(=O)c2ccc3ccccc3c2)N[C@@H](CCCNC(=N)N)C1=O)C(F)(c1ccccc1)c1ccccc1` [Compound 206, N-(((3S,5S)-1-((R)-1-fluoro-11-diphenylpropan-2-yl)-3-(3-guanidinopropyl)-2-oxo-1,4-diazepan-5-yl)methyl)-2-naphthamide], the 50% inhibitory concentration (IC50) was below 1000 nM.

As to `CC[C@H](CN1CC[C@@H](CNC(=O)c2ccc3ccccc3c2)N[C@@H](CCN)C1=O)c1ccccc1` [Compound 389, N-(((3S,5S)-3-(2-aminoethyl)-2-oxo-1-((S)-2-phenylbutyl)-1,4-diazepan-5-yl)methyl)-2-naphthamide], the IC50 is below 1000 nM.

In the case of `NCCC[C@@H]1N[C@H](CNC(=O)c2ccc3ccccc3c2)CCN(Cc2cc(F)cc(F)c2)C1=O` [Compound 313, N-(((3S,5S)-3-(3-aminopropyl)-1-(3,5-difluorobenzyl)-2-oxo-1,4-diazepan-5-yl)methyl)-2-naphthamide], the IC50 was below 10000 nM.

For `C[C@H](C(c1ccccc1)c1ccccc1)N1CC[C@@H](CNC(=O)c2ccc3ccccc3c2)N[C@@H](CCCNC(=N)N)C1=O` [Compound 204, N-(((3S,5S)-1-((R)-1,1-diphenylpropan-2-yl)-3-(3-guanidinopropyl)-2-oxo-1,4-diazepan-5-yl)methyl)-2-naphthamide], the IC50 was below 1000 nM.

With `CC[C@@H](CN1CC[C@@H](CNC(=O)c2ccc3cc(Cl)ccc3c2)N[C@@H](CCN2CCCCC2)C1=O)c1ccsc1` [Compound 510, 6-chloro-N-(((3S,5S)-2-oxo-3-(2-(piperidin-1-yl)ethyl)-1-((R)-2-(thiophen-3-yl)butyl)-1,4-diazepan-5-yl)methyl)-2-naphthamide], the IC50 is below 100 nM.

Regarding `NCC[C@@H]1N[C@H](CNC(=O)c2ccc3cc(Cl)ccc3c2)CCN(Cc2ccc(Cl)cc2Cl)C1=O` [Compound 507, N-(((3S,5S)-3-(2-aminoethyl)-1-(2,4-dichlorobenzyl)-2-oxo-1,4-diazepan-5-yl)methyl)-6-chloro-2-naphthamide], the IC50 is below 100 nM.

`C[C@@H](CN1CC[C@@H](CNC(=O)c2ccc3ccccc3c2)N[C@@H](CCN)C1=O)c1ccc(Cl)cc1` [Compound 421, N-(((3S,5S)-3-(2-aminoethyl)-1-((R)-2-(4-chlorophenyl)propyl)-2-oxo-1,4-diazepan-5-yl)methyl)-2-naphthamide]: the IC50 was below 10000 nM.

On to `CC[C@H](CN1CC[C@@H](CNC(=O)c2ccccc2-c2ccc(Cl)cc2)N[C@@H](CCN2CCCCC2)C1=O)c1ccccc1` [Compound 497, 4′-chloro-N-(((3S,5S)-2-oxo-1-((S)-2-phenylbutyl)-3-(2-(piperidin-1-yl)ethyl)-1,4-diazepan-5-yl)methyl)biphenyl-2-carboxamide], for which the half-maximal inhibitory concentration (IC50) is below 100 nM.

For the compound `NCCC[C@@H]1N[C@H](CNC(=O)c2ccc(-c3ccccc3)cc2)CCN(CC(c2ccccc2)c2ccccc2)C1=O` [Compound 106, N-(((3S,5S)-3-(3-aminopropyl)-1-(2,2-diphenylethyl)-2-oxo-1,4-diazepan-5-yl)methyl)biphenyl-4-carboxamide], the IC50 is below 1000 nM.

As for `CC[C@H](CN1CC[C@@H](CNCc2ccc(Cl)c(Cl)c2)N[C@@H](CCN2CCCCC2)C1=O)c1ccccc1` [Compound 485, (3S,5S)-5-((3,4-dichlorobenzylamino)methyl)-1-((S)-2-phenylbutyl)-3-(2-(piperidin-1-yl)ethyl)-1,4-diazepan-2-one], the IC50 is below 100 nM.

For `CC[C@H](CN1CC[C@@H](CNC(=O)c2ccc3cc(Cl)ccc3c2)N[C@@H](CCNC(=N)N)C1=O)c1ccccc1` [Compound 457, 6-chloro-N-(((3S,5S)-3-(2-guanidinoethyl)-2-oxo-1-((S)-2-phenylbutyl)-1,4-diazepan-5-yl)methyl)-2-naphthamide], the IC50 was below 100 nM.

Consider `CC[C@H](CN1CC[C@@H](CNC(=O)c2ccc3ccccc3c2)N[C@@H](CCCN)C1=O)c1ccccc1` [Compound 385, N-(((3S,5S)-3-(3-aminopropyl)-2-oxo-1-((S)-2-phenylbutyl)-1,4-diazepan-5-yl)methyl)-2-naphthamide], for which the IC50 was below 1000 nM.

In the case of `Cc1c(C(=O)NC[C@@H]2CCN(CC(c3ccccc3)c3ccccc3)C(=O)[C@H](CCCN)N2)cnn1-c1ccccc1` [Compound 241, N-(((3S,5S)-3-(3-aminopropyl)-1-(2,2-diphenylethyl)-2-oxo-1,4-diazepan-5-yl)methyl)-5-methyl-1-phenyl-1H-pyrazole-4-carboxamide], the IC50 is below 10000 nM.

As to `CC(C)(NC(=O)/C=C/c1ccc(Cl)cc1)[C@@H]1CCN(CC(c2ccccc2)c2ccccc2)C(=O)[C@H](CCN2CCCCC2)N1` [Compound 420, (E)-3-(4-chlorophenyl)-N-(2-((3S,5S)-1-(2,2-diphenylethyl)-2-oxo-3-(2-(piperidin-1-yl)ethyl)-1,4-diazepan-5-yl)propan-2-yl)acrylamide], the concentration for half-maximal inhibition (IC50) was below 1000 nM.

Turning to `O=C(NC[C@@H]1CCN(CC(c2ccccc2)c2ccccc2)C(=O)[C@H](CCCN2CCCC2)N1)c1ccc2ccccc2c1` [Compound 261, N-(((3S,5S)-1-(2,2-diphenylethyl)-2-oxo-3-(3-(pyrrolidin-1-yl)propyl)-1,4-diazepan-5-yl)methyl)-2-naphthamide], the 50% inhibitory concentration (IC50) was below 100 nM.

Regarding `CC(=O)NCCC[C@@H]1N[C@H](CNC(=O)/C=C/c2ccc(C)cc2)CCN(CC(c2ccccc2)c2ccccc2)C1=O` [Compound 293, (E)-N-(((3S,5S)-3-(3-acetamidopropyl)-1-(2,2-diphenylethyl)-2-oxo-1,4-diazepan-5-yl)methyl)-3-p-tolylacrylamide], the half-inhibitory concentration (IC50) was below 1000 nM.

For the compound `CC[C@@H](CN1CC[C@@H](CNC(=O)c2ccc(Cl)c(Cl)c2)N[C@@H](CCN2CCCCC2)C1=O)c1ccccc1` [Compound 363, 3,4-dichloro-N-(((3S,5S)-2-oxo-1-((R)-2-phenylbutyl)-3-(2-(piperidin-1-yl)ethyl)-1,4-diazepan-5-yl)methyl)benzamide], the IC50 is below 100 nM.

Turning to `C/C(=C\c1ccccc1)C(=O)NC[C@@H]1CCN(CC(c2ccccc2)c2ccccc2)C(=O)[C@H](CCCNC(=N)N)N1` [Compound 173, (E)-N-(((3S,5S)-1-(2,2-diphenylethyl)-3-(3-guanidinopropyl)-2-oxo-1,4-diazepan-5-yl)methyl)-2-methyl-3-phenylacrylamide], the half-maximal inhibitory concentration (IC50) was below 1000 nM.

Consider `CC[C@H](CN1CC[C@@H](CNC(=O)c2ccc3cc(Cl)ccc3c2)N[C@@H](CCN2CCCCCC2)C1=O)c1ccccc1` [Compound 493, N-(((3S,5S)-3-(2-(azepan-1-yl)ethyl)-2-oxo-1-((S)-2-phenylbutyl)-1,4-diazepan-5-yl)methyl)-6-chloro-2-naphthamide], for which the half-inhibitory concentration (IC50) was below 100 nM.

As to `NCC[C@@H]1N[C@H](CNC(=O)c2cccc(C(F)(F)F)c2)CCN(CC(c2ccccc2)c2ccccc2)C1=O` [Compound 437, N-(((3S,5S)-3-(2-aminoethyl)-1-(2,2-diphenylethyl)-2-oxo-1,4-diazepan-5-yl)methyl)-3-(trifluoromethyl)benzamide], the IC50 was below 10000 nM.

For `CCC(CC)CN1CC[C@@H](CNC(=O)c2ccc3cc(Cl)ccc3c2)N[C@@H](CCN)C1=O` [Compound 370, N-(((3S,5S)-3-(2-aminoethyl)-1-(2-ethylbutyl)-2-oxo-1,4-diazepan-5-yl)methyl)-6-chloro-2-naphthamide], the half-maximal inhibitory concentration (IC50) was below 1000 nM.

As to `O=C(C=Cc1ccccc1)NC[C@@H]1CCN(CC(c2ccccc2)c2ccccc2)C(=O)[C@H](CCN2CCCCC2)N1` [Compound 283, N-(((3S,5S)-1-(2,2-diphenylethyl)-2-oxo-3-(2-(piperidin-1-yl)ethyl)-1,4-diazepan-5-yl)methyl)cinnamamide], the 50% inhibitory concentration (IC50) was below 100 nM.

Consider `CC[C@H](CN1CC[C@@H](CNC(=O)c2ccc3cc(Cl)ccc3c2)N[C@@H](CCN)C1=O)c1ccccc1` [Compound 441, N-(((3S,5S)-3-(2-aminoethyl)-2-oxo-1-((S)-2-phenylbutyl)-1,4-diazepan-5-yl)methyl)-6-chloro-2-naphthamide], for which the IC50 was below 100 nM.

As for `CC[C@H](CN1CC[C@@H](CNC(=O)/C=C/c2ccc(Cl)cc2)N[C@@H](CCN2CCCC2)C1=O)c1ccccc1` [Compound 407, (E)-3-(4-chlorophenyl)-N-(((3S,5S)-2-oxo-1-((S)-2-phenylbutyl)-3-(2-(pyrrolidin-1-yl)ethyl)-1,4-diazepan-5-yl)methyl)acrylamide], the concentration for half-maximal inhibition (IC50) was below 100 nM.

Take `CCC(CC)CN1CC[C@@H](CNC(=O)c2ccc3cc(Br)ccc3c2)N[C@@H](CCN)C1=O` [Compound 371, N-(((3S,5S)-3-(2-aminoethyl)-1-(2-ethylbutyl)-2-oxo-1,4-diazepan-5-yl)methyl)-6-bromo-2-naphthamide]: the IC50 is below 1000 nM.

As for `N=C(N)NCCC[C@@H]1N[C@H](CNC(=O)c2ccc3ccccc3c2)CCN(Cc2cccc3ccccc23)C1=O` [Compound 263, N-(((3S,5S)-3-(3-guanidinopropyl)-1-(naphthalen-1-ylmethyl)-2-oxo-1,4-diazepan-5-yl)methyl)-2-naphthamide], the IC50 is below 10000 nM.

Usually IC50 stands for the concentration that gives 50% inhibition.
